From US20150250883A1, “COMPOSITIONS AND METHODS TO IMPROVE THE HOMING AND GRAFTING OF HEMATOPOETIC STEM CELLS” (7 HILLS PHARMA, LLC, priority 2014, published 2015)

Assays:
[1] = test system: Jurkat cells (integrin expressing) adhering to immobilized CS1-BSA; experiment: Static adhesion of integrin expressing cells to an immobilized integrin ligand; format: cell-based
Method: The effective concentration of a representative agonist compound, THI0019, in a cell carrier was evaluated by a static adhesion of integrin expressing cells to an immobilized integrin ligand in vitro, as described below.
The effective concentration of THI0019, a representative agonist compound used in this example, was evaluated by a static adhesion of integrin expressing cells to an immobilized integrin ligand. The 25 amino acid alternatively spliced sequence of fibronectin named connecting segment 1 (CS1) was synthesized and conjugated to BSA. CS1-BSA at 0.3 μg/mL in 50 μL of a representative cell carrier was added to wells of a 96-well plate and allowed to coat overnight at 4° C. The representative cell carrier is isotonic Tris Buffered Saline comprising 50 mM Tris-HCl (pH 7.4), 150 mM NaCl and 1 mM MgCl2 and is a model isotonic buffer. Plates were washed with the cell carrier and blocked with 2 wt. % BSA for 1 h. 32×10^6 of Jurkat cells were labeled for 30 minutes with calcein-AM (Molecular Probes), washed 2 times with the cell carrier, resuspended in 8 mL of the cell carrier, and divided equally between two tubes. One tube of the cell suspension was treated with 40 μL DMSO (control) and the other with 40 μL of 1 mM THI0019 in DMSO. The control containing tube and the THI0019 containing tube were each further divided equally among four eppendorf tubes (Tubes 1-4 for each group) such that each contained 4×10^6 of the cells in 1 mL of the control or the THI0019 containing cell carrier. Tube 1 from each group was not further processed (“no treatment”). Tubes 2-4 were centrifuged at 100×G for 5 min at RT. The supernatant was carefully removed with a pipet and each cell pellet was resuspended in 1 mL of the cell carrier without the agonist compound. Tube 2 was not further processed (“pellet”). Tubes 3-4 were again centrifuged at 100×G for 5 min. The supernatant was carefully removed with a pipet and each cell pellet was resuspended in 1 mL of the cell carrier without the agonist compound. Tube 3 was not further processed (“1 wash”). Tube 4 was again centrifuged at 100×G for 5 min. The supernatant was carefully removed with a pipet and the cell pellet was resuspended in 1 mL of the cell carrier without the agonist compound. Tube 4 was not further processed (“2 wash”). The final concentrations of THI0019 in the respective cell carriers for no treatment, pellet, 1 wash, and 2 wash were 10 μM, […]. […] After 30-minute incubation at 37° C., the plates were washed 3 times with binding cell carrier, the adherent cells were lysed, and fluorescence was measured on a Tecan Safire plate reader. The number of cells bound was determined by standard curves correlating fluorescence to cell number generated with the same mixtures used for the assay.

[2] = test system: TF-1 cells on immobilized recombinant human VCAM-1; settings: interpretation of cited detachment assay data; cited from earlier work
[3] = static adhesion, FIG. 1, printed as 'at least 1 femtomolar (fM) to 1 μM'

SMILES: CCCC[C@@H](COC(=O)N(Cc1cccs1)Cc1cccs1)NC(=O)N[C@@H](CC(=O)OC)c1ccc2c(c1)OCO2 [THI0019, methyl (6S,10S)-10-(1,3-benzodioxol-5-yl)-6-butyl-3,8-dioxo-1-(2-thienyl)-2-(2-thienylmethyl)-4-oxa-2,7,9-triazadodecan-12-oate]
- ability of agonist treated cells to bind to a cognate ligand after exposure ([1]; after exposure to the agonist in cell carrier): enhanced ability to bind to a cognate ligand within minutes
- adhesion potential of cells after dilution/washing of compound from cell carrier ([1]; compound reduced by multiple 1000-fold serial dilutions to as low as 1 fM in cell carrier): retained the ability to exhibit enhanced adhesion potential
- effective amount of the agonist compound present in the cell carrier, lower end of range [1, 3]: 1 fM
- effective amount of the agonist compound present in the cell carrier, upper end of range [1, 3]: 1 µM
- effect on VCAM-1 / VLA-4 interaction (applicant's reading of Vanderslice data) [2]: stabilizes the VCAM-1 and VLA-4 interaction and upon endogenous ligand binding, the compound is displaced
